Measured values: patent US10869931B2, “Polyethylene glycol-modified angiogenesis inhibitor HM-1 and application thereof” (NANJING ANJI BIOLOGICAL TECHNOLOGY CO.,LTD, priority 2016, dated 2020)
Marks after values point to notes of the source that are not given here. Where no end group is shown, it is not given here.

Experiments:
Brain tumor cells = experiment: MTT proliferation inhibition, brain tumor cells; assay type: cell-based, human; parameters: concentration or dose not given beside the values; settings: 48 h
Method: (§1) The activity of mPEG-HM-1 to inhibit the growth of various tumor cells was examined by MTT assay. The tumor cells were cultured to a concentration of 90% or more in a 37° C., 5% CO2 incubator and collected by trypsinization. The cells were resuspended in the culture medium and counted under a microscope to adjust the cell concentration to 2×10^4 cells/mL, the cell suspension was inoculated into a 96-well plate at 100 μL/well and incubated overnight at 37° C. in a 5% CO2 incubator. mPEG-HM-1 was diluted with the culture solution to each predetermined concentration. Docetaxel is diluted to the final concentration with the culture medium. After the cells were fully attached, each dilution was added to a 96-well plate (100 μL/well). The mPEG-HM-1 dilution was added as a drug-administered group, and docetaxel was added as a positive control group, and a culture solution without any drug was used as a negative control group. Incubate for 48 h at 37° C. in a 5% CO2 incubator. 5 mg/mL of MTT was added to a 96-well plate at 20 μL per well, and incubation was continued for 4 hours. The medium was aspirated, dissolved in 150 μL of DMSO per well, and gently mixed by shaking for 10 min. The absorbance was measured at a measurement wavelength of 570 nm and a reference wavelength of 630 nm using a microplate reader, and the rate of growth inhibition (proliferation inhibition, PI) was calculated. The formula is as follows: PI (%)=1−administration group/negative group
(§2) The test was repeated 3 times independently, and the results obtained by the test were expressed as mean±SD, and the test results are shown in Table 15 to Table 18.

[1] = test system: Thyroid cancer tumor cells; experiment: MTT proliferation inhibition, thyroid cancer cells; assay type: cell-based, human; parameters: concentration or dose not given beside the values; settings: 48 h
Method: as §1, §2

Liver cancer tumor cells = experiment: MTT proliferation inhibition, liver cancer cells; assay type: cell-based, human; parameters: concentration or dose not given beside the values; settings: 48 h
Method: as §1, §2

[2] = test system: Kidney cancer tumor cells; experiment: MTT proliferation inhibition, kidney cancer cells; assay type: cell-based, human; parameters: concentration or dose not given beside the values; settings: 48 h
Method: as §1, §2

[3] = test system: Cervical cancer tumor cells; experiment: MTT proliferation inhibition, cervical cancer cells; assay type: cell-based, human; parameters: concentration or dose not given beside the values; settings: 48 h
Method: as §1, §2

[4] = test system: Human Umbilical Vein Endothelial Cells (HUVEC); experiment: Transwell migration of HUVEC; assay type: cell-based; settings: 24 h
Method: 10 mg/mL Matrigel was diluted 1:2 with HUVEC-specific medium, spread on a transwell chamber membrane, and air-dried at room temperature. HUVEC cells cultured in logarithmic growth phase were digested with trypsin digest, collected, washed twice with PBS, and resuspended in blank HUVECs-specific medium. The cells were counted under a microscope, and the cell concentration was adjusted to 1×10^5/mL. The test solutions of each group were prepared and diluted to 100 μL with a blank HUVECs-specific medium. The cells were seeded into a transwell chamber at 100 μL per well, and each set of test solution was added to the chamber. The cell culture was stimulated by adding 0.6 mL of endothelial cell culture medium containing 5% fetal bovine serum and 1% ECGS into a 24-well plate, and cultured at 5% CO2 for 24 hour at 37° c. Discard the culture medium in the well, fix it with 90% alcohol at room temperature for 30 minutes, 0.1% crystal violet for 10 min at room temperature, rinse with water, gently wipe off the unsprayed cells in the upper layer with a cotton swab, observe under microscope and select four fields to take pictures. Calculate migration inhibition (MI) according to the formula: […]
Ntest was the number of cell migration in the test group, and Ncontrol was the number of cell migration in the blank control group.
The test was repeated 3 times independently. The results obtained from the test were calculated as mean±SD, and a statistical T test was performed. *P<0.05 was a significant difference, and **P<0.01 was a very significant difference.

[5] = test system: IL-1β production by mouse peritoneal macrophages; experiment: IL-1β production by mouse peritoneal macrophages (ELISA); assay type: cell-based; settings: 48 h
Method: (1) IL-1β production: mice were intraperitoneally injected with 1 mL of broth (containing 6%) starch, and three days later, the mouse peritoneal macrophages were aseptically taken, washed twice with 1640 medium, and the cell concentration was adjusted to 2×10^6 cells/mL, inject into a 24-well culture plate, 1 mL per well, incubate for 3 hours in a cell culture incubator, shake once every 30 minutes, and allow the cells to fully adhere. Then, it was washed twice with the culture solution to remove unattached cells. The blank group was added with PBS, the positive group was added with the positive drug dexamethasone (Dex), the model group was not administered, to the experimental group was added low, medium and high three concentrations of mPEG-HM-1, and the culture was continued for 48 hours after the administration, 1000 r/min. Centrifuge for 15 min. The supernatant was taken as a sample for testing activity of IL-1β.
(2) Determination of IL-1β content: using R&D mouse IL-1β enzyme-linked immunosorbent assay kit, according to the kit instructions as follows: respectively, the tested samples and different concentrations of standard products, sealed with sealing tape the reaction well and incubated at 37° C. for 90 min; the plate was washed four times; the biotinylated antibody working solution (100 μL/well) was added, and the reaction well was sealed with sealing paper, incubated at 37° c. for 60 min; the plate was washed four times; Add the enzyme conjugate working solution (100 μL/well), seal the reaction well with sealing paper, incubate at 37° C. for 30 min; wash the plate four times; add color reagent (100 μL/well), incubate at 37° C. 10-20 min, add stop solution (100 μL/well), mix and measure OD450 value.

[6] = test system: xylene-induced ear swelling in Kunming mice; experiment: Xylene-induced ear swelling in mice; assay type: in vivo, mouse; settings: for Swelling: 2 h after xylene; for Inhibition rate: ear swelling vs control
Method: Kunming mice were used. The saline group was used as the blank control group, the aspirin group (200 mg/kg) as the positive control group, and the mPEG-HM-1 administration group as the experimental group. Mice were administered once daily for 5 consecutive days. The blank control group was given an equal volume of physiological saline. One hour after the last administration, 0.05 mL of xylene was applied to both sides of the right ear of the mice to cause inflammation, and the left ear was not coated as normal ears. After 2 h, the mice were sacrificed by dislocation, and the ears were cut along the auricle. Ear pieces were taken with a puncher, weighed, and the swelling degree and swelling rate were calculated. Swelling degree=right ear piece weight-left ear piece weight, swelling rate=(swelling degree/left ear piece weight)×100%. Statistical t-test was performed on the test results, *P<0.05 was a significant difference, and **P<0.01 was a very significant difference. See Table 31 to Table 34 for the results.

[7] = 160 mg/kg once daily for 5 days

Substance	rate of growth inhibition (Brain tumor cells) [%]	rate of growth inhibition [1] [%]	rate of growth inhibition (Liver cancer tumor cells) [%]	rate of growth inhibition [2] [%]	rate of growth inhibition [3] [%]	inhibition rate of HUVEC migration ([4]; 90 μg/mL)	IL-1β ([5]; 40 μg/mL) [pg/mL]	Inhibition Rate of IL-1β production ([5]; 40 μg/mL) [%]	IL-1β ([5]; 80 μg/mL) [pg/mL]	Inhibition Rate of IL-1β production ([5]; 80 μg/mL) [%]	Swelling ([6]; 40 mg/kg once daily for 5 days)	Inhibition rate ([6]; 40 mg/kg once daily for 5 days) [%]	Swelling ([6]; 80 mg/kg once daily for 5 days)	Inhibition rate ([6]; 80 mg/kg once daily for 5 days) [%]	inhibition rate of HUVEC migration ([4]; 80 μg/mL)	IL-1β ([5]; 20 μg/mL) [pg/mL]	Inhibition Rate of IL-1β production ([5]; 20 μg/mL) [%]	Swelling ([6]; 20 mg/kg once daily for 5 days)	Inhibition rate ([6]; 20 mg/kg once daily for 5 days) [%]	other results
mPEG-ALD40k-Arg-Gly-Ala-Asp-Arg-Ala-Gly-Gly-Gly-Gly-Arg-Gly-Asp ({mPEG‑ALD 40 kDa}-RGADRAGGGGRGD) [mPEG-ALD40k-HM-1]	50.69 ± 14.41	49.03 ± 13.08	60.78 ± 10.88	68.46 ± 20.98	70.62 ± 19.14	48.07%*	742.06 ± 16.59	19.07	664.40 ± 18.43	27.54	5.41 ± 0.16 mg	11.53	4.77 ± 0.62* mg	22.02	–	–	–	–	–	cell migration number (Mean ± SD) ([4]; 90 μg/mL): 534.34 ± 56.62; cell migration number (Mean ± SD) ([4]; 100 μg/mL): 510.47 ± 60.56; inhibition rate of HUVEC migration ([4]; 100 μg/mL): 50.39%; cell migration number (Mean ± SD) ([4]; 110 μg/mL): 471.88 ± 46.27; inhibition rate of HUVEC migration ([4]; 110 μg/mL): 54.14%; cell migration number (Mean ± SD) ([4]; 120 μg/mL): 565.31 ± 50.34; inhibition rate of HUVEC migration ([4]; 120 μg/mL): 45.06%*; IL-1β ([5]; 160 μg/mL): 495.96 ± 10.95 pg/mL; Inhibition Rate of IL-1β production ([5]; 160 μg/mL): 45.91%; Swelling [6, 7]: 4.16 ± 0.25** mg; Inhibition rate [6, 7]: 32.09%
mPEG-bALD20k-Arg-Gly-Ala-Asp-Arg-Ala-Gly-Gly-Gly-Gly-Arg-Gly-Asp ({mPEG‑bALD 20 kDa}-RGADRAGGGGRGD) [mPEG-bALD20k-HM-1]	54.77 ± 13.43	49.38 ± 13.20	62.49 ± 16.14	66.81 ± 19.48	78.57 ± 20.11	53.82%	640.26 ± 14.28	30.57	487.37 ± 12.06	47.15	4.64 ± 0.34* mg	23.62	3.78 ± 0.27** mg	37.76	55.68%	738.66 ± 12.81	19.90	5.03 ± 0.18 mg	17.13	–
mPEG2-NHS10k-Arg-Gly-Ala-Asp-Arg-Ala-Gly-Gly-Gly-Gly-Arg-Gly-Asp ({mPEG2‑NHS 10 kDa}-RGADRAGGGGRGD) [mPEG2-NHS10k-HM-1]	47.62 ± 11.11	40.47 ± 12.03	54.19 ± 12.80	52.09 ± 14.91	54.82 ± 17.10	–	546.79 ± 14.12	40.96	–	–	4.13 ± 0.35** mg	33.19	–	–	45.69%*	675.25 ± 11.93	27.09	4.72 ± 0.72* mg	23.57	cell migration number (Mean ± SD) ([4]; 50 μg/mL): 603.97 ± 40.36; inhibition rate of HUVEC migration ([4]; 50 μg/mL): 41.74%*; cell migration number (Mean ± SD) ([4]; 60 μg/mL): 506.83 ± 46.25; inhibition rate of HUVEC migration ([4]; 60 μg/mL): 51.11%; cell migration number (Mean ± SD) ([4]; 70 μg/mL): 410.53 ± 48.64; inhibition rate of HUVEC migration ([4]; 70 μg/mL): 60.40%; cell migration number (Mean ± SD) ([4]; 80 μg/mL): 563.02 ± 56.22; IL-1β ([5]; 10 μg/mL): 758.32 ± 15.18 pg/mL; Inhibition Rate of IL-1β production ([5]; 10 μg/mL): 18.12%; Swelling ([6]; 10 mg/kg once daily for 5 days): 5.39 ± 0.14 mg; Inhibition rate ([6]; 10 mg/kg once daily for 5 days): 12.76%
